Key:
[1] = tested on: passive cutaneous anaphylaxis (PCA); assay: passive cutaneous anaphylaxis (PCA) in rats after passive sensitization with IgE antibodies and antigen provocation; type: in vivo; details: po; Rat
Experimental: (a) Tests on allergized rats were carried out after passive sensitization of the animals with IgE antibodies and subsequent antigen provocation. In this way, passive cutaneous anaphylaxis (PCA) was produced (Goose et al [1969]: Immunology 16, 749).

histamine wheal = histamine wheal (antihistaminic activity) in rats, Evans Blue extravasation; type: in vivo
Source text: (b) Antihistaminic activity:
The results were quantified by measuring the wheal after extravasation of Evans Blue dye into the skin.

in vivo = details: mouse, po

## Br.Cn1cc2n(c1=N)-c1ccccc1Cc1ccccc1-2 [Example 2, 2-Methyl-3-imino-2,3-dihydro-9H-dibenz-[c,f]-imidazo-[1,5-a]-azepine hydrobromide]
[1]
  ED50: 1.1 mg/kg
Histamine wheal; i.v.
  Histamine Wheal (rat) i.v.: 0.07
Histamine wheal; p.o.
  Histamine Wheal (rat) p.o.: 2.7
In vivo
  LD50: 280 mg/kg
